Reference: patent US7601716B2, “Pyridopyrazines and derivatives thereof as ALK and c-Met inhibitors” (Cephalon, Inc., priority 2006, dated 2009)

Assays:
[1] = molecular target: T1, c-Met (cytoplasmic domain) (Homo sapiens, UniProt P08581); test: c-Met Kinase Assay (ELISA/TRF, PLC-γ substrate); type: biochemical; conditions: 3 μM ATP (Km level); read-out: c-Met Kinase Inhibition (IC50)
T1 construct: Reactions were initiated with 30 ng/mL c-Met (cytoplasmic domain, Invitrogen Corporation #PV3143); purchased Invitrogen Corporation PV3143
Outline: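 Readout is TRF of europium anti-phosphotyrosine (PT66) bound to GST–PLC-γ substrate coated at 10 μg/mL, after a 15 min, 37 °C reaction started with 30 ng/mL c-Met cytoplasmic domain. Percent inhibition plotted against log compound concentration and fitted (variable slope) for IC50.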

[2] = molecular target: baculovirus-expressed ALK (Homo sapiens, UniProt Q9UM73); test: ALK Kinase Assay (ELISA/TRF, PLC-γ substrate); type: biochemical; conditions: read-out: ALK Kinase Inhibition (IC50); further: 1 µM ATP (Km level)
Outline: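 Read-out: TRF of europium-labeled anti-phosphotyrosine antibody bound to phosphorylated GST–PLC-γ coated at 10 μg/mL. Kinase step used 30 ng/ml ALK, 37° C, 15 minutes. IC50 values fitted by nonlinear sigmoidal dose-response (variable slope).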

baculovirus-expressed ALK, sequence (Q9UM73 19-1620): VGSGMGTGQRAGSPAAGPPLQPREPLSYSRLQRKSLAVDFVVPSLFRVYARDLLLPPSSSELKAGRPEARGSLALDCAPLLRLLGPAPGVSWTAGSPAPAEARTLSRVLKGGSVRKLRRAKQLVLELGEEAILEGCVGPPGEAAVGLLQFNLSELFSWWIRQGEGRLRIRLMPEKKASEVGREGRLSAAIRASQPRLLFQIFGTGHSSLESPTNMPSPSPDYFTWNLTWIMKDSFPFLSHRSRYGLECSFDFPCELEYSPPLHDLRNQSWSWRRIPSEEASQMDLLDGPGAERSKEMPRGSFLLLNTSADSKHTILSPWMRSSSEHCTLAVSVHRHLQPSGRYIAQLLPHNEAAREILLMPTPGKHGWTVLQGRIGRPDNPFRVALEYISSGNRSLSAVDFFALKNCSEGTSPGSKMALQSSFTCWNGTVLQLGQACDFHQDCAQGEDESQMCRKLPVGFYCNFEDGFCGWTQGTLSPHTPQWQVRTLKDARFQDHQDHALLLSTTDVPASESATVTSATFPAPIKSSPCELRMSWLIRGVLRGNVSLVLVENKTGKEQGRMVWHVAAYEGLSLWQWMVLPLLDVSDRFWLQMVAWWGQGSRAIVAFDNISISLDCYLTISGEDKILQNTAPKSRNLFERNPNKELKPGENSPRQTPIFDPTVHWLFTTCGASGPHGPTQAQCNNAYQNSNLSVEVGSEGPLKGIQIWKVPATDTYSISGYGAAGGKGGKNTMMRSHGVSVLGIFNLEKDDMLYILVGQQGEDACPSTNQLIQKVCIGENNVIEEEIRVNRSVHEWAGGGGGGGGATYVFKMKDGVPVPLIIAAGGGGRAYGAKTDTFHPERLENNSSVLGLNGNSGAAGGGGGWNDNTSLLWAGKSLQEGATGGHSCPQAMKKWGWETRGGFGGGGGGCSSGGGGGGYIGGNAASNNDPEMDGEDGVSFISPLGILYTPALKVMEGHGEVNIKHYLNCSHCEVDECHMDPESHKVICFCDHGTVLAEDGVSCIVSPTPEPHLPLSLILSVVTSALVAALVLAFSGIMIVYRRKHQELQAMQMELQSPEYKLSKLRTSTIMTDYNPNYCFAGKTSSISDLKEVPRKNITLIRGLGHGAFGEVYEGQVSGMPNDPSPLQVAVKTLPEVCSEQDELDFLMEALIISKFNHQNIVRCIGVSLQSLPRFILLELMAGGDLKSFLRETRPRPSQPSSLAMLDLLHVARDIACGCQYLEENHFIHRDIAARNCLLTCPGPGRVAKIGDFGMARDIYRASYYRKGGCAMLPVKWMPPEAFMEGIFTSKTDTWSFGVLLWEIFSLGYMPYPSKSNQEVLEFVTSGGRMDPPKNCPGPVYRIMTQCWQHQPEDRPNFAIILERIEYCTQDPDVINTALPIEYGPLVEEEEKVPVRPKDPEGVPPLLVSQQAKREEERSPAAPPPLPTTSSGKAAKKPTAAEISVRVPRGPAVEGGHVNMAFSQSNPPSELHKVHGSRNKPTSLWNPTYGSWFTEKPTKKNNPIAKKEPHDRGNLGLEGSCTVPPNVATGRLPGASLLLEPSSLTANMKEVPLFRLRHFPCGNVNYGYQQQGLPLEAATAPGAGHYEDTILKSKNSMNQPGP
T1 sequence (P08581 956-1390 limits assumed): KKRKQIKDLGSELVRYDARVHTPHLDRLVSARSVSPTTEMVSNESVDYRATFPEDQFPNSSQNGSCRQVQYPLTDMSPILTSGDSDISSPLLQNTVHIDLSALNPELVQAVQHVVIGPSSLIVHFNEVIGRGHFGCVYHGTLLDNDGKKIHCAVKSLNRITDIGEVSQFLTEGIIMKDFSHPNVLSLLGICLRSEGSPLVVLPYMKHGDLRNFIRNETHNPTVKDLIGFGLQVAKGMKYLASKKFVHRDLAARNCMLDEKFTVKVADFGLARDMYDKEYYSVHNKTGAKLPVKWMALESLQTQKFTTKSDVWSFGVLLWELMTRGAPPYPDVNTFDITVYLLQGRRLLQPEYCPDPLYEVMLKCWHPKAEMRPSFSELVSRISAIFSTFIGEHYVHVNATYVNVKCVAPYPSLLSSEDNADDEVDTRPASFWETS

| IC50 [1] [µM] | IC50 [2] [µM] | SMILES |
| --- | --- | --- |
| > 100 | 1 to 10 | O=C(c1cnc2c(c1)N(Cc1cc(Cl)ccc1Cl)CCN2)N1CCC[C@H]1CN1CCCC1 [Example 238, [1-(2,5-Dichlorobenzyl)-1,2,3,4-tetrahydropyrido[2,3-b]pyrazin-7-yl]-((S)-2-pyrrolidin-1-ylmethyl-pyrrolidin-1-yl)methanone] |
| > 100 | 1 to 10 | O=C(NCc1cc(C(F)(F)F)cc(C(F)(F)F)c1)c1cnc2c(c1)N(Cc1cc(Cl)ccc1Cl)CCN2 [Example 239, 1-(2,5-Dichlorobenzyl)-1,2,3,4-tetrahydropyrido[2,3-b]pyrazine-7-carboxylic acid 3,5-bis-(trifluoromethyl)benzylamide] |
| > 100 | 0.1 to 1 | NS(=O)(=O)c1ccc(CCNC(=O)c2cnc3c(c2)N(Cc2cc(Cl)ccc2Cl)CCN3)cc1 [Example 240, 1-(2,5-Dichlorobenzyl)-1,2,3,4-tetrahydropyrido[2,3-b]pyrazine-7-carboxylic acid [2-(4-sulfamoylphenyl)ethyl]amide] |
| > 100 | 0.1 to 1 | O=C(c1cnc2c(c1)N(Cc1cc(Cl)ccc1Cl)CCN2)N1CCN(c2cnccn2)CC1 [Example 241, [1-(2,5-Dichlorobenzyl)-1,2,3,4-tetrahydropyrido[2,3-b]pyrazin-7-yl]-(2,3,5,6-tetrahydro-[1,2′]bipyrazinyl-4-yl)methanone] |
| > 100 | 1 to 10 | O=C(NCc1csc(-c2ccccc2)n1)c1cnc2c(c1)N(Cc1cc(Cl)ccc1Cl)CCN2 [Example 242, 1-(2,5-Dichlorobenzyl)-1,2,3,4-tetrahydropyrido[2,3-b]pyrazine-7-carboxylic acid (2-phenylthiazol-4-yl-methyl)amide] |
| 10 to 100 | 10 to 100 | O=C(c1cnc2c(c1)N(Cc1cc(Cl)ccc1Cl)CCN2)N1CCOCC1 [Example 243, [1-(2,5-Dichlorobenzyl)-1,2,3,4-tetrahydropyrido[2,3-b]pyrazin-7-yl]morpholin-4-yl-methanone] |
| > 100 | 1 to 10 | O=C(NCc1cccc2ccccc12)c1cnc2c(c1)N(Cc1cc(Cl)ccc1Cl)CCN2 [Example 244, 1-(2,5-Dichlorobenzyl)-1,2,3,4-tetrahydropyrido[2,3-b]pyrazine-7-carboxylic acid (naphthalen-1-yl-methyl)amide] |
| 10 to 100 | 0.1 to 1 | O=C(NC1CCc2ccccc21)c1cnc2c(c1)N(Cc1cc(Cl)ccc1Cl)CCN2 (stereo not drawn) [Example 245, 1-(2,5-Dichlorobenzyl)-1,2,3,4-tetrahydropyrido[2,3-b]pyrazine-7-carboxylic acid indan-1-ylamide] |
| > 100 | 0.1 to 1 | O=C(NCc1ccccc1)c1cnc2c(c1)N(Cc1cc(Cl)ccc1Cl)CCN2 [Example 246, 1-(2,5-Dichlorobenzyl)-1,2,3,4-tetrahydropyrido[2,3-b]pyrazine-7-carboxylic acid benzylamide] |
| > 100 | 1 to 10 | COc1ccc(N2CCN(C(=O)c3cnc4c(c3)N(Cc3cc(Cl)ccc3Cl)CCN4)CC2)cc1 [Example 247, [1-(2,5-Dichlorobenzyl)-1,2,3,4-tetrahydropyrido[2,3-b]pyrazin-7-yl]-[4-(4-methoxyphenyl)piperazin-1-yl]methanone] |
| > 100 | 1 to 10 | O=C(NC1CCCCC1)c1cnc2c(c1)N(Cc1cc(Cl)ccc1Cl)CCN2 [Example 248, 1-(2,5-Dichlorobenzyl)-1,2,3,4-tetrahydropyrido[2,3-b]pyrazine-7-carboxylic acid cyclohexylamide] |
| > 100 | 10 to 100 | O=C(NCc1ccc(-c2ccccc2)cc1)c1cnc2c(c1)N(Cc1cc(Cl)ccc1Cl)CCN2 [Example 249, 1-(2,5-Dichlorobenzyl)-1,2,3,4-tetrahydropyrido[2,3-b]pyrazine-7-carboxylic acid (biphenyl-4-ylmethyl)amide] |
| > 100 | 0.1 to 1 | O=C(c1cnc2c(c1)N(Cc1cc(Cl)ccc1Cl)CCN2)N1CCN(c2ccc(Cl)cc2)CC1 [Example 250, [4-(4-Chlorophenyl)piperazin-1-yl]-[1-(2,5-dichlorobenzyl)-1,2,3,4-tetrahydropyrido[2,3-b]pyrazin-7-yl]methanone] |
| 10 to 100 | 10 to 100 | O=C(NCCOc1ccccc1)c1cnc2c(c1)N(Cc1cc(Cl)ccc1Cl)CCN2 [Example 251, 1-(2,5-Dichlorobenzyl)-1,2,3,4-tetrahydropyrido[2,3-b]pyrazine-7-carboxylic acid (2-phenoxyethyl)amide] |
| > 100 | 10 to 100 | O=C(c1cnc2c(c1)N(Cc1cc(Cl)ccc1Cl)CCN2)N1CCN(C(=O)C2CCCO2)CC1 (stereo not drawn) [Example 252, [1-(2,5-Dichlorobenzyl)-1,2,3,4-tetrahydropyrido[2,3-b]pyrazin-7-yl]-[4-(tetrahydrofuran-2-carbonyl)piperazin-1-yl]methanone] |
| > 100 | 0.1 to 1 | O=C(NCCc1ccccc1)c1cnc2c(c1)N(Cc1cc(Cl)ccc1Cl)CCN2 [Example 253, 1-(2,5-Dichlorobenzyl)-1,2,3,4-tetrahydropyrido[2,3-b]pyrazine-7-carboxylic acid phenethyl-amide] |
| > 100 | 1 to 10 | O=C(NCC1CCCO1)c1cnc2c(c1)N(Cc1cc(Cl)ccc1Cl)CCN2 (stereo not drawn) [Example 254, 1-(2,5-Dichlorobenzyl)-1,2,3,4-tetrahydropyrido[2,3-b]pyrazine-7-carboxylic acid (tetrahydrofuran-2-yl-methyl)amide] |
| > 100 | 1 to 10 | O=C(c1cnc2c(c1)N(Cc1cc(Cl)ccc1Cl)CCN2)N1CCN(Cc2ccc(Cl)cc2)CC1 [Example 255, [4-(4-Chlorobenzyl)piperazin-1-yl]-[1-(2,5-dichlorobenzyl)-1,2,3,4-tetrahydropyrido[2,3-b]pyrazin-7-yl]methanone] |
| > 100 | 1 to 10 | O=C(NCc1ccccc1Cl)c1cnc2c(c1)N(Cc1cc(Cl)ccc1Cl)CCN2 [Example 256, 1-(2,5-Dichlorobenzyl)-1,2,3,4-tetrahydropyrido[2,3-b]pyrazine-7-carboxylic acid 2-chloro-benzylamide] |
| > 100 | 10 to 100 | O=C(c1cnc2c(c1)N(Cc1cc(Cl)ccc1Cl)CCN2)N1CCN(c2ccccc2C(F)(F)F)CC1 [Example 257, [1-(2,5-Dichlorobenzyl)-1,2,3,4-tetrahydropyrido[2,3-b]pyrazin-7-yl]-[4-(2-(trifluoromethyl)phenyl)piperazin-1-yl]methanone] |
| > 100 | 1 to 10 | COc1ccc(CNC(=O)c2cnc3c(c2)N(Cc2cc(Cl)ccc2Cl)CCN3)cc1 [Example 258, 1-(2,5-Dichlorobenzyl)-1,2,3,4-tetrahydropyrido[2,3-b]pyrazine-7-carboxylic acid 4-methoxybenzylamide] |
| > 100 | 1 to 10 | O=C(NC1Cc2ccccc2C1)c1cnc2c(c1)N(Cc1cc(Cl)ccc1Cl)CCN2 [Example 259, 1-(2,5-Dichlorobenzyl)-1,2,3,4-tetrahydropyrido[2,3-b]pyrazine-7-carboxylic acid indan-2-ylamide] |
| > 100 | 1 to 10 | O=C(c1cnc2c(c1)N(Cc1cc(Cl)ccc1Cl)CCN2)N1CCN(CCc2ccccc2)CC1 [Example 260, [1-(2,5-Dichlorobenzyl)-1,2,3,4-tetrahydropyrido[2,3-b]pyrazin-7-yl]-(4-phenethyl-piperazin-1-yl)methanone] |
| > 100 | 1 to 10 | O=C(c1cnc2c(c1)N(Cc1cc(Cl)ccc1Cl)CCN2)N1CCN(c2ccccc2Cl)CC1 [Example 261, [4-(2-Chlorophenyl)piperazin-1-yl]-[1-(2,5-dichlorobenzyl)-1,2,3,4-tetrahydropyrido[2,3-b]pyrazin-7-yl]methanone] |
| > 100 | 10 to 100 | O=C(c1cnc2c(c1)N(Cc1cc(Cl)ccc1Cl)CCN2)N1CCN(CC2CCCCC2)CC1 [Example 262, [(4-Cyclohexylmethyl)piperazin-1-yl]-[1-(2,5-dichlorobenzyl)-1,2,3,4-tetrahydropyrido[2,3-b]pyrazin-7-yl]methanone] |
| > 100 | 1 to 10 | NS(=O)(=O)c1ccc(CNC(=O)c2cnc3c(c2)N(Cc2cc(Cl)ccc2Cl)CCN3)cc1 [Example 263, 1-(2,5-Dichlorobenzyl)-1,2,3,4-tetrahydropyrido[2,3-b]pyrazine-7-carboxylic acid 4-sulfamoyl-benzylamide] |
| > 100 | 1 to 10 | O=C(c1cnc2c(c1)N(Cc1cc(Cl)ccc1Cl)CCN2)N1CCCC1c1cccnc1 (stereo not drawn) [Example 264, [1-(2,5-Dichlorobenzyl)-1,2,3,4-tetrahydropyrido[2,3-b]pyrazin-7-yl]-(2-pyridin-3-yl-pyrrolidin-1-yl)methanone] |
| > 100 | > 100 | CN1CCN(C(=O)c2ccc(-c3cnc4c(c3)C(O)CCN4)cc2)CC1 (stereo not drawn) [Example 270, [4-(5-Hydroxy-5,6,7,8-tetrahydro-[1,8]naphthyridin-3-yl)phenyl]-(4-methyl-piperazin-1-yl)methanone] |
| 10 to 100 | > 100 | Clc1cccc(OC2CCNc3ncc(Br)cc32)c1 (stereo not drawn) [Example 271, 6-Bromo-4-(3-chlorophenoxy)-1,2,3,4-tetrahydro-[1,8]naphthyridine] |
| 1 to 10 | 0.1 to 1 | CN1CCN(C(=O)c2ccc(-c3cnc4c(c3)C(Oc3cc(Cl)ccc3Cl)CCN4)cc2)CC1 (stereo not drawn) [Example 272, {4-[5-(2,5-Dichlorophenoxy)-5,6,7,8-tetrahydro-[1,8]naphthyridin-3-yl]phenyl}-(4-methyl-piperazin-1-yl)methanone] |
